# US11331289B2, “Antimicrobial composition” (priority 2017, dated 2022)
# Experiments:
# Format in all cases: cell-based, Staphylococcus pseudintermedius
# [1] = test system: MRSP 16125; assay: Time-killing curve, inoculum 5.10^5 CFU/ml (MIC 0.5 μg/ml)
# Procedure: (§1) The objective of this study is to assess in vitro the time-killing curves of oxyclozanide against four strains of Methicillin-Resistant Staphylococcus from dogs.
# (§2) Two Methicillin-Resistant Staphylococcus aureus (MRSA) and two Methicillin-Resistant Staphylococcus pseudintermedius (MRSP) isolated from the clinics have been tested.
# (§3) The assessment of time-killing curves has been realized by a broth macrodilution method (Mueller-Hinton II Broth).
# (§4) Oxyclozanide is diluted in (DMSO) into sterile tubes in order to obtain the following concentrations from 800 to 6.25 μg/ml. Those concentrations and stock standard solution are then diluted (1/10) in Mueller-Hinton II Broth in order to obtain the following concentrations from […] (See Table 2).
# (§5) Each operation is performed under sterile conditions. Each working standard solution (10*the final active ingredient concentration) is distributed in tubes (1 ml, for a final volume of 10 ml after addition of 9 ml of inoculum). One tube without active ingredient is used as growth control (Concentration=0).
# (§6) Bacterial isolates are sub-cultured from one cryobead on Columbia agar supplemented with 5% of blood. Pure cultures are incubated during 18-24 hours at 37° C. Three to five isolated colonies of similar appearance are selected from a previous culture and transferred into tubes containing 9 ml of Mueller-Hinton II Broth. The broth is incubated during 12-18 hours at 37° C. 0.5 to 1 ml of this broth is inoculated to another Mueller-Hinton II Broth 9 ml tube which is incubated during 3 to 4 hours at 37° C. to reach the exponential growth phase. The bacterial inoculum grown exponential phase is suspended to an optical density of McFarland standard scale 0.5 equivalent to a bacterial density of 10^8 CFU/ml and then adjusted to a concentration of about 5.10^5 CFU/ml as indicated by the guideline CLSI M26-A and to a second inoculum tested: 10^6 CFU/ml.
# (§7) 9 ml of bacterial inoculum grown to exponential phase is added to 1 ml of active ingredient (or Mueller Hinton II Broth for the growth control). Tubes are incubated at 35° C. during 24 hours.
# (§8) At times 0, 2, 4, 6 and 24 hours, 100 μl of broth of each tube is sampled and diluted in microplates:
# (§9) Each well is re-cultured by streaking 10 μl on Columbia agar supplemented with 5% of blood. Plates are incubated at 37° C. during 18-24 hours incubation. Thus, residual bacterial concentrations are determined (CFU/ml). Results are expressed in log10 values of CFU/ml over-time in broth. Due to the procedure used, the minimal bacterial concentration that can be assessed is 10^2 CFU/ml.
# [2] = test system: MRSP 16127; assay: Time-killing curve, inoculum 5.10^5 CFU/ml (MIC 0.25 μg/ml)
# Procedure: as §1, §2, §3, §4, §5, §6, §7, §8, §9
# [3] = test system: MRSP 16127; assay: Time-killing curve, inoculum 10^6 CFU/ml (MIC 0.25 μg/ml)
# Procedure: as §1, §2, §3, §4, §5, §6, §7, §8, §9
compound,measurement,setting,value
O=C(Nc1cc(Cl)cc(Cl)c1O)c1c(O)c(Cl)cc(Cl)c1Cl [Oxyclozanide],Counting results,"[1]; 1 MIC, 0 h",4.000E+05 CFU/ml
same,Counting results,"[1]; 1 MIC, 2 h",2.600E+04 CFU/ml
same,Counting results,"[1]; 1 MIC, 4 h",1.900E+04 CFU/ml
same,Counting results,"[1]; 1 MIC, 6 h",1.300E+04 CFU/ml
same,Counting results,"[1]; 1 MIC, 24 h",6.000E+05 CFU/ml
same,Counting results,"[1]; 2 MIC, 0 h",4.000E+05 CFU/ml
same,Counting results,"[1]; 2 MIC, 2 h",1.000E+02 CFU/ml
same,Counting results,"[1]; 2 MIC, 4 h",3.000E+02 CFU/ml
same,Counting results,"[1]; 2 MIC, 6 h",1.000E+02 CFU/ml
same,Counting results,"[1]; 2 MIC, 24 h",2.000E+02 CFU/ml
same,Counting results,"[1]; 4 MIC, 0 h",4.000E+05 CFU/ml
same,Counting results,"[1]; 4 MIC, 2 h",1.000E+02 CFU/ml
same,Counting results,"[1]; 4 MIC, 4 h",1.000E+02 CFU/ml
same,Counting results,"[1]; 4 MIC, 6 h",1.000E+02 CFU/ml
same,Counting results,"[1]; 4 MIC, 24 h",1.000E+02 CFU/ml
same,Counting results,"[1]; 8 MIC, 0 h",4.000E+05 CFU/ml
same,Counting results,"[1]; 8 MIC, 2 h",1.000E+02 CFU/ml
same,Counting results,"[1]; 8 MIC, 4 h",1.000E+02 CFU/ml
same,Counting results,"[1]; 8 MIC, 6 h",1.000E+02 CFU/ml
same,Counting results,"[1]; 8 MIC, 24 h",1.000E+02 CFU/ml
same,Counting results,"[1]; 16 MIC, 0 h",4.000E+05 CFU/ml
same,Counting results,"[1]; 16 MIC, 2 h",1.000E+02 CFU/ml
same,Counting results,"[1]; 16 MIC, 4 h",1.000E+02 CFU/ml
same,Counting results,"[1]; 16 MIC, 6 h",1.000E+02 CFU/ml
same,Counting results,"[1]; 16 MIC, 24 h",1.000E+02 CFU/ml
same,Time to obtain bactericidal effect at 4 MIC,"[1]; 16125/5.10^5 CFU/ml, >=3 log10 decrease in CFU",2 h
same,Counting results,"[1]; ¼ MIC, 0 h",4.000E+05 CFU/ml
same,Counting results,"[1]; ¼ MIC, 2 h",5.500E+05 CFU/ml
same,Counting results,"[1]; ¼ MIC, 4 h",2.600E+06 CFU/ml
same,Counting results,"[1]; ¼ MIC, 6 h",1.600E+07 CFU/ml
same,Counting results,"[1]; ¼ MIC, 24 h",4.900E+10 CFU/ml
same,Counting results,"[1]; ½ MIC, 0 h",4.000E+05 CFU/ml
same,Counting results,"[1]; ½ MIC, 2 h",3.800E+05 CFU/ml
same,Counting results,"[1]; ½ MIC, 4 h",3.100E+05 CFU/ml
same,Counting results,"[1]; ½ MIC, 6 h",3.400E+05 CFU/ml
same,Counting results,"[1]; ½ MIC, 24 h",3.200E+08 CFU/ml
same,Counting results,"[2]; 1 MIC, 0 h",3.600E+05 CFU/ml
same,Counting results,"[2]; 1 MIC, 2 h",2.300E+05 CFU/ml
same,Counting results,"[2]; 1 MIC, 4 h",1.900E+06 CFU/ml
same,Counting results,"[2]; 1 MIC, 6 h",4.600E+06 CFU/ml
same,Counting results,"[2]; 1 MIC, 24 h",8.100E+08 CFU/ml
same,Counting results,"[2]; 2 MIC, 0 h",3.600E+05 CFU/ml
same,Counting results,"[2]; 2 MIC, 2 h",2.000E+05 CFU/ml
same,Counting results,"[2]; 2 MIC, 4 h",2.400E+05 CFU/ml
same,Counting results,"[2]; 2 MIC, 6 h",2.400E+05 CFU/ml
same,Counting results,"[2]; 2 MIC, 24 h",6.600E+05 CFU/ml
same,Counting results,"[2]; 4 MIC, 0 h",3.600E+05 CFU/ml
same,Counting results,"[2]; 4 MIC, 2 h",1.400E+04 CFU/ml
same,Counting results,"[2]; 4 MIC, 4 h",4.400E+03 CFU/ml
same,Counting results,"[2]; 4 MIC, 6 h",3.500E+03 CFU/ml
same,Counting results,"[2]; 4 MIC, 24 h",1.300E+03 CFU/ml
same,Counting results,"[2]; 8 MIC, 0 h",3.600E+05 CFU/ml
same,Counting results,"[2]; 8 MIC, 2 h",1.600E+03 CFU/ml
same,Counting results,"[2]; 8 MIC, 4 h",4.000E+02 CFU/ml
same,Counting results,"[2]; 8 MIC, 6 h",1.000E+02 CFU/ml
same,Counting results,"[2]; 8 MIC, 24 h",1.000E+02 CFU/ml
same,Counting results,"[2]; 16 MIC, 0 h",3.600E+05 CFU/ml
same,Counting results,"[2]; 16 MIC, 2 h",3.000E+02 CFU/ml
same,Counting results,"[2]; 16 MIC, 4 h",1.000E+02 CFU/ml
same,Counting results,"[2]; 16 MIC, 6 h",1.000E+02 CFU/ml
same,Counting results,"[2]; 16 MIC, 24 h",1.000E+02 CFU/ml
same,Time to obtain bactericidal effect at 4 MIC,"[2]; 16127/5.10^5 CFU/ml, >=3 log10 decrease in CFU",6 to 24 h
same,Counting results,"[2]; ¼ MIC, 0 h",3.600E+05 CFU/ml
same,Counting results,"[2]; ¼ MIC, 2 h",3.900E+05 CFU/ml
same,Counting results,"[2]; ¼ MIC, 4 h",5.900E+06 CFU/ml
same,Counting results,"[2]; ¼ MIC, 6 h",3.400E+07 CFU/ml
same,Counting results,"[2]; ¼ MIC, 24 h",2.900E+10 CFU/ml
same,Counting results,"[2]; ½ MIC, 0 h",3.600E+05 CFU/ml
same,Counting results,"[2]; ½ MIC, 2 h",3.300E+05 CFU/ml
same,Counting results,"[2]; ½ MIC, 4 h",2.700E+06 CFU/ml
same,Counting results,"[2]; ½ MIC, 6 h",2.400E+07 CFU/ml
same,Counting results,"[2]; ½ MIC, 24 h",2.900E+10 CFU/ml
same,Counting results,"[3]; 1 MIC, 0 h",9.000E+05 CFU/ml
same,Counting results,"[3]; 1 MIC, 2 h",4.100E+05 CFU/ml
same,Counting results,"[3]; 1 MIC, 4 h",4.000E+06 CFU/ml
same,Counting results,"[3]; 1 MIC, 6 h",7.500E+06 CFU/ml
same,Counting results,"[3]; 1 MIC, 24 h",9.000E+07 CFU/ml
same,Counting results,"[3]; 2 MIC, 0 h",9.000E+05 CFU/ml
same,Counting results,"[3]; 2 MIC, 2 h",4.100E+05 CFU/ml
same,Counting results,"[3]; 2 MIC, 4 h",5.400E+05 CFU/ml
same,Counting results,"[3]; 2 MIC, 6 h",2.500E+06 CFU/ml
same,Counting results,"[3]; 2 MIC, 24 h",7.600E+06 CFU/ml
same,Counting results,"[3]; 4 MIC, 0 h",9.000E+05 CFU/ml
same,Counting results,"[3]; 4 MIC, 2 h",1.700E+04 CFU/ml
same,Counting results,"[3]; 4 MIC, 4 h",1.500E+03 CFU/ml
same,Counting results,"[3]; 4 MIC, 6 h",3.000E+02 CFU/ml
same,Counting results,"[3]; 4 MIC, 24 h",8.000E+02 CFU/ml
same,Counting results,"[3]; 8 MIC, 0 h",9.000E+05 CFU/ml
same,Counting results,"[3]; 8 MIC, 2 h",5.200E+03 CFU/ml
same,Counting results,"[3]; 8 MIC, 4 h",1.000E+02 CFU/ml
same,Counting results,"[3]; 8 MIC, 6 h",1.000E+02 CFU/ml
same,Counting results,"[3]; 8 MIC, 24 h",1.000E+02 CFU/ml
same,Counting results,"[3]; 16 MIC, 0 h",9.000E+05 CFU/ml
same,Counting results,"[3]; 16 MIC, 2 h",1.200E+03 CFU/ml
same,Counting results,"[3]; 16 MIC, 4 h",1.000E+02 CFU/ml
same,Counting results,"[3]; 16 MIC, 6 h",1.000E+02 CFU/ml
same,Counting results,"[3]; 16 MIC, 24 h",1.000E+02 CFU/ml
same,Time to obtain bactericidal effect at 4 MIC,"[3]; 16127/10^6 CFU/ml, >=3 log10 decrease in CFU",4 to 6 h
same,Counting results,"[3]; ¼ MIC, 0 h",9.000E+05 CFU/ml
same,Counting results,"[3]; ¼ MIC, 2 h",5.100E+05 CFU/ml
same,Counting results,"[3]; ¼ MIC, 4 h",4.200E+06 CFU/ml
same,Counting results,"[3]; ¼ MIC, 6 h",3.000E+07 CFU/ml
same,Counting results,"[3]; ¼ MIC, 24 h",4.900E+10 CFU/ml
same,Counting results,"[3]; ½ MIC, 0 h",9.000E+05 CFU/ml
same,Counting results,"[3]; ½ MIC, 2 h",4.300E+05 CFU/ml
same,Counting results,"[3]; ½ MIC, 4 h",3.700E+06 CFU/ml
same,Counting results,"[3]; ½ MIC, 6 h",2.100E+07 CFU/ml
same,Counting results,"[3]; ½ MIC, 24 h",3.400E+09 CFU/ml
